In patent US9877961B2, “Anticoagulant reversal agents” (PEROSPHERE INC., priority 2011, dated 2018):
“Also recorded” adds a separate entry of the source.

Columns and labels:
[1] = Stability of DAP powder: storage at 4° C. and differential scanning calorimetry; assay type: physicochemical
Description: An acetate salt of DAP was prepared as described herein. As described in these examples, DAP solid or powder refers to the acetate salt, while DAP in solution refers to the free base as the salt ionizes in aqueous solution. As described in these examples, the DAP compound used was the compound of Formula VII.
The DAP powder was tested for thermal stability in two ways. DAP was stored at 4° C. for 7 months prior to use. Additionally, the DAP solid was tested by differential scanning calorimetry (DSC) by heating from −20° C. to 200° C., back to −20° C. and again to 200° C.

[2] = tested on: dabigatran etexilate (PRADAXA®) anticoagulation; test: Rat tail transection bleeding assay, dabigatran etexilate; assay type: in vivo
Description: (§1) Rat tail bleeding assay or rat tail transection assay is an assay that measures blood loss, e.g., blood loss after drug administration. In one embodiment, where the effect of the compound of the invention (e.g., DAP) is being tested, at the Tmax of the anticoagulant, DAP is administered intravenously. After 20 minutes, rat tails are transected approximately 1 mm from the tip, placed in room temperature saline, and blood is collected for 30 minutes and weighed.
(§2) Three rats each were administered 2 mg of rivaroxaban. One rat received a sham reversal containing no DAP, the second received 2.5 mg of DAP, and the third received 12.5 mg DAP. A fourth fat received sham anticoagulant and reversal doses (“sham”). 20 minutes after the reversal dose, tails were transected 1 mm from the tip, placed in room temperature saline, and blood loss was collected for 30 minutes and then weighed.
Same procedures were used with 1.25 mg apixaban (ELIQUIS®) alone or in combination with 5 or 12.5 mg DAP; […]; and with 5 mg edoxaban (LIXIANA®) alone or in combination with 12.5 mg DAP.

Water solubility of DAP = assay type: physicochemical
Description: In one embodiment, wherein the pharmaceutical composition comprises the DAP compound of formula V (or its stereoisomer of formula VII) and the composition is adapted for parenteral administration in an injection, the compound is dissolved in water with appropriate tonicity and molality modifiers (such as phosphate buffered saline). DAP is water-soluble at greater than 100 mg/ml. In the one embodiment, DAP is adapted as a sterile solution for IV administration. In one aspect, the molality of the pharmaceutical composition in which DAP is adapted for IV administration is adjusted to 290 mOsm/L with sodium chloride, and the pH is adjusted to 7.4 with sodium hydroxide. Preferably the pharmaceutical composition is administered as an intravenous bolus by slow push.

[3] = DLS association of DAP with LMWH (bemiparin); assay type: binding
Description: Dynamic light scattering (DLS) was used to assess association of 1 mg/ml unfractionated heparin and 1 mg/ml bemiparin (LMWH; HIBOR®), either alone or in combination with […] DAP in water (mass ratios of 100:1 of DAP to heparin or LMWH).
Rivaroxaban (XARELTO®) alone, DAP alone, and DAP:rivaroxaban combinations at mass ratios of 1:1 and 10:1 were added into an aqueous solution and analyzed by dynamic light scattering (DLS) to assess association of the DAP and rivaroxaban. A similar experiment was conducted on apixaban (ELIQUIS®) alone, DAP alone, and DAP:apixaban combinations at mass ratios of 1:1, 10:1 and 100:1. Fondaparinux (ARIXTRA®) alone, DAP alone, and fondaparinux:DAP combinations at mass ratios of 1:1, 10:1 and 100:1 were similarly tested. LMWH (bemiparin; HIBOR®), alone, DAP alone, and LMWH:DAP combinations at mass ratios of 1:1, 10:1, and 100:1 were also tested. The concentration of LMWH tested was 0.1 mg/ml. Therefore, at 1:1, 0.1 mg/ml DAP was tested, at 10:1, 1 mg/ml was tested, and at 100:1, 10 mg/ml DAP was tested.

[4] = tested on: rivaroxaban anticoagulation; test: Rat tail transection bleeding assay, rivaroxaban; assay type: in vivo
Description: as §1, §2

[5] = tested on: rivaroxaban (XARELTO®) anticoagulation; test: DAP reversal of rivaroxaban (XARELTO®) anticoagulation in vivo, aPTT; parameters: species or system rat; conditions: rats, 5 mg/kg rivaroxaban oral, 5 mg/kg (2 mg) DAP i.v.
Description: (§3) The activated partial thromboplastin time (aPTT) assay is an assay that measures how long it takes for the blood to clot. Blood samples are collected for direct measurement or in tubes with oxalate and citrate to arrest coagulation by calcium until the assay can be performed. In the assay, a phospholipid, an activator (silica, celite, kaolin, ellagic acid, etc.), and calcium are mixed into the plasma to induce coagulation. The assay measures the time until a thrombus (clot) forms.
5 mg/kg rivaroxaban (XARELTO®) was orally administered to rats. After four hours, 5 mg/kg of DAP (2 mg DAP) was administered intravenously. aPTT were measured at zero, 15, 30, 45, 60 and 240 minutes, prior to administration of DAP. aPTT was again measured at about 5, 10, 25, 35, 45, 60, 120, and 240 minutes after DAP administration.

[6] = tested on: unfractionated heparin anticoagulation; test: DAP reversal of unfractionated heparin anticoagulation in vivo, aPTT; parameters: species or system rat
Text: as §3
A male albino rat, weighing 515 g, was administered 10 mg/kg of unfractionated heparin (5 mg UFH) by subcutaneous injection.
200 mg/kg of DAP (100 mg DAP) was administered as two intravenous bolus injections after UFH administration. Subsequently, the rat was administered a dose of 400 mg/kg of DAP (200 mg of DAP). aPTT was measured throughout the course of the entire treatment.

[7] = rat tail transection, 30 minutes

In the case of `N=C(N)NCCC[C@H](N)C(=O)NCCCN1CCN(CCCNC(=O)[C@@H](N)CCCNC(=N)N)CC1` (stereo in doubt) [DAP, 2-Amino-5-guanidino-pentanoic acid (3-{4-[3-(2-amino-5-guanidino-pentanoylamino)-propyl]-piperazin-1-yl}-propyl)-amide], the “stability to storage as a lyophilized powder” value ([1]; 4° C.) is reported as “more than one year”, the “stability of DAP powder on storage” value ([1]; 4° C., powder (acetate salt)) is reported as “more than 12 months” and the “thermal stability (DSC, stability to sterilization)” value ([1]; heating from −20° C. to 200° C., twice) is reported as “survived repeated heating to 200 °C”. For the same compound, the “blood loss (blood collected over 30 minutes)” value ([2]; 15 mg dabigatran etexilate and 12.5 mg DAP, p<0.01 vs dabigatran etexilate only) was “reduced blood loss to sham dose levels”, the “reversal of dabigatran, blood loss vs anticoagulant only” value [2, 7] was “statistically significant reduction in blood loss” and the solubility (Water solubility of DAP) was over 100 mg/mL. For the same compound, the “physical association / binding by DLS” value [3] was “physically associated; also recorded: directly bound”, the “blood loss (blood collected over 30 minutes)” value ([4]; 2 mg rivaroxaban and 12.5 mg DAP, p<0.05 vs rivaroxaban only) was “reduced blood loss to sham dose levels” and the “reversal of rivaroxaban, blood loss vs anticoagulant only” value [4, 7] was “statistically significant reduction in blood loss”. The “reversal of oral rivaroxaban anticoagulation in vivo” value [5] was “effectively reversed”, the “aPTT after DAP” value ([6]; 200 mg DAP i.v., 10 minutes) was 33 s and the “aPTT after DAP” value ([6]; first 100 mg DAP i.v., 20 minutes) was 48 s. For the same compound, the “reversal of unfractionated heparin in vivo” value ([6]; rat, in vivo) was “reversed”, the “aPTT after DAP” value ([6]; second 100 mg DAP i.v., 15 minutes) was 47 s and the “aPTT risen after first DAP dose” value ([6]; within 1 hour after first 100 mg DAP) was 120 s. The “aPTT risen after second DAP dose” value ([6]; within 1 hour after second 100 mg DAP) was 96 s.
